# Reference: US9265253B2, “Use of macrocyclic picolinamides as fungicides” (DOW AGROSCIENCES LLC, priority 2013, dated 2016)
# Test system: Cercospora beticola
# Experiment: Leaf Spot of Sugar Beets (CERCBE) disease control
# Assay type: in vivo
# Conditions: Cercospora beticola, topical, 24 h, 1 Day Protectant, sugar beet, read-out: Disease Control CERCBE 1 DP
# Description: Technical grades of materials were dissolved in acetone, which were then mixed with nine volumes of water containing 110 ppm Triton X-100. The fungicide solutions were applied onto wheat seedlings using an automated booth sprayer to run-off. All sprayed plants were allowed to air dry prior to further handling. All fungicides were evaluated using the aforementioned method for their activity vs. all target diseases. Wheat leaf blotch and brown rust activity were also evaluated using track spray applications, in which case the fungicides were formulated as EC formulations, containing 0.1% Trycol 5941 in the spray solutions. Wheat plants (variety Yuma) were grown from seed in a greenhouse in 50% mineral soil/50% soil-less Metro mix until the first leaf was fully emerged, with 7-10 seedlings per pot. These plants were inoculated with an aqueous spore suspension of Septoria tritici either prior to or after fungicide treatments. After inoculation the plants were kept in 100% relative humidity (one day in a dark dew chamber followed by two to three days in a lighted dew chamber at 20° C.) to permit spores to germinate and infect the leaf. The plants were then transferred to a greenhouse set at 20° C. for disease to develop. When disease symptoms were fully expressed on the 1st leaves of untreated plants, infection levels were assessed on a scale of 0 to 100 percent disease severity. Percent disease control was calculated using the ratio of disease severity on treated plants relative to untreated plants. Sugar beet plants (variety HH88) were grown in soil-less Metro mix and trimmed regularly to maintain a uniform plant size prior to test. Plants were inoculated with a spore suspension 24 hr after fungicide treatments. Inoculated plants were kept in a dew chamber at 22° C. for 48 hr then incubated in a greenhouse set at 24° C. under a clear plastic hood with bottom ventilation until disease symptoms were fully expressed. Fungicide formulation, application and disease assessment on the sprayed leaves followed the procedures as described in the Example A.
row,SMILES,pest or weed control at 100 ppm [%]
1,COc1ccnc(C(=O)N[C@H]2CCC[C@H](Cc3ccccc3)[C@@H](OCC3CC3)[C@H](C)OC2=O)c1OCOC(C)=O [Compound F107],80 to 100
2,COc1ccc(C[C@H]2CCC[C@H](NC(=O)c3nccc(OC)c3OCOC(C)=O)C(=O)O[C@@H](C)[C@@H]2OCC(C)C)cc1 [Compound F118],80 to 100
3,CCOCC(=O)OCOc1c(OC)ccnc1C(=O)N[C@H]1CCC[C@H](CC2CCCCC2)[C@@H](OCC(C)C)[C@H](C)OC1=O [Compound F175],80 to 100
4,COc1ccnc(C(=O)N[C@H]2CCC[C@H](Cc3ccccc3)[C@@H](OCC3CC3)[C@H](C)OC2=O)c1OCOC(=O)C(C)C [Compound F152],80 to 100
5,COc1ccnc(C(=O)N[C@H]2CCC[C@H](Cc3ccc(C)cc3)[C@@H](OCC(C)C)[C@H](C)OC2=O)c1OCOC(C)=O [Compound F126],80 to 100
6,CC[C@H]1CCC[C@H](NC(=O)c2nccc(OC)c2OC(C)=O)C(=O)O[C@@H](C)[C@@H]1Oc1ccccc1 [Compound F81],80 to 100
7,COc1ccnc(C(=O)N[C@H]2CCC[C@H](CC(F)F)[C@@H](Oc3ccccc3)[C@H](C)OC2=O)c1OC(C)=O [Compound F82],80 to 100
8,COc1ccc(C[C@H]2CCC[C@H](NC(=O)c3nccc(OC)c3OCOC(C)=O)C(=O)O[C@@H](C)[C@@H]2Oc2ccccc2)cc1 [Compound F114],80 to 100
9,COc1ccnc(C(=O)N[C@H]2CCC[C@H](CCBr)[C@@H](Oc3ccccc3)[C@H](C)OC2=O)c1OC(C)=O [Compound F80],80 to 100

# Test system: Rhyncosporium secalis
# Experiment: Barley Scald (RHYNSE) disease control
# Assay type: in vivo
# Conditions: Hordeum vulgare, 24 h, 1 Day Protectant, read-out: Disease Control RHYNSE 1 DP
# Description: Technical grades of materials were dissolved in acetone, which were then mixed with nine volumes of water containing 110 ppm Triton X-100. The fungicide solutions were applied onto wheat seedlings using an automated booth sprayer to run-off. All sprayed plants were allowed to air dry prior to further handling. All fungicides were evaluated using the aforementioned method for their activity vs. all target diseases. Wheat leaf blotch and brown rust activity were also evaluated using track spray applications, in which case the fungicides were formulated as EC formulations, containing 0.1% Trycol 5941 in the spray solutions. Wheat plants (variety Yuma) were grown from seed in a greenhouse in 50% mineral soil/50% soil-less Metro mix until the first leaf was fully emerged, with 7-10 seedlings per pot. These plants were inoculated with an aqueous spore suspension of Septoria tritici either prior to or after fungicide treatments. After inoculation the plants were kept in 100% relative humidity (one day in a dark dew chamber followed by two to three days in a lighted dew chamber at 20° C.) to permit spores to germinate and infect the leaf. The plants were then transferred to a greenhouse set at 20° C. for disease to develop. When disease symptoms were fully expressed on the 1st leaves of untreated plants, infection levels were assessed on a scale of 0 to 100 percent disease severity. Percent disease control was calculated using the ratio of disease severity on treated plants relative to untreated plants. Barley seedlings (variety Harrington) were propagated in soil-less Metro mix, with each pot having 8 to 12 plants, and used in the test when first leaf was fully emerged. Test plants were inoculated by an aqueous spore suspension of Rhyncosporium secalis 24 hr after fungicide treatments. After inoculation the plants were kept in a dew room at 20° C. with 100% relative humidity for 48 hr. The plants were then transferred to a greenhouse set at 20° C. for disease to develop. Fungicide formulation, application and disease assessment on the sprayed leaves followed the procedures as described in the Example A.
row,SMILES,pest or weed control at 100 ppm [%]
1,COc1ccnc(C(=O)N[C@H]2CCC[C@H](Cc3ccccc3)[C@@H](OCC3CC3)[C@H](C)OC2=O)c1OCOC(C)=O [Compound F107],80 to 100
2,COc1ccc(C[C@H]2CCC[C@H](NC(=O)c3nccc(OC)c3OCOC(C)=O)C(=O)O[C@@H](C)[C@@H]2OCC(C)C)cc1 [Compound F118],80 to 100
3,CCOCC(=O)OCOc1c(OC)ccnc1C(=O)N[C@H]1CCC[C@H](CC2CCCCC2)[C@@H](OCC(C)C)[C@H](C)OC1=O [Compound F175],80 to 100
4,COc1ccnc(C(=O)N[C@H]2CCC[C@H](Cc3ccccc3)[C@@H](OCC3CC3)[C@H](C)OC2=O)c1OCOC(=O)C(C)C [Compound F152],80 to 100
5,COc1ccnc(C(=O)N[C@H]2CCC[C@H](Cc3ccc(C)cc3)[C@@H](OCC(C)C)[C@H](C)OC2=O)c1OCOC(C)=O [Compound F126],80 to 100
6,CC[C@H]1CCC[C@H](NC(=O)c2nccc(OC)c2OC(C)=O)C(=O)O[C@@H](C)[C@@H]1Oc1ccccc1 [Compound F81],80 to 100
7,COc1ccnc(C(=O)N[C@H]2CCC[C@H](CC(F)F)[C@@H](Oc3ccccc3)[C@H](C)OC2=O)c1OC(C)=O [Compound F82],0 to 80
8,COc1ccc(C[C@H]2CCC[C@H](NC(=O)c3nccc(OC)c3OCOC(C)=O)C(=O)O[C@@H](C)[C@@H]2Oc2ccccc2)cc1 [Compound F114],80 to 100

# Test system: Magnaporthe grisea; Anamorph: Pyricularia oryzae
# Experiment: whole plant or invertebrate
# Assay type: in vivo
# Conditions: Pyricularia oryzae, topical, 24 h, read-out: Disease Control PYRIOR 1 DP
row,SMILES,pest or weed control at 100 ppm [%]
1,COc1ccnc(C(=O)N[C@H]2CCC[C@H](Cc3ccccc3)[C@@H](OCC3CC3)[C@H](C)OC2=O)c1OCOC(C)=O [Compound F107],80 to 100
2,COc1ccc(C[C@H]2CCC[C@H](NC(=O)c3nccc(OC)c3OCOC(C)=O)C(=O)O[C@@H](C)[C@@H]2OCC(C)C)cc1 [Compound F118],80 to 100
3,CCOCC(=O)OCOc1c(OC)ccnc1C(=O)N[C@H]1CCC[C@H](CC2CCCCC2)[C@@H](OCC(C)C)[C@H](C)OC1=O [Compound F175],80 to 100
4,COc1ccnc(C(=O)N[C@H]2CCC[C@H](Cc3ccccc3)[C@@H](OCC3CC3)[C@H](C)OC2=O)c1OCOC(=O)C(C)C [Compound F152],80 to 100
5,COc1ccnc(C(=O)N[C@H]2CCC[C@H](Cc3ccc(C)cc3)[C@@H](OCC(C)C)[C@H](C)OC2=O)c1OCOC(C)=O [Compound F126],80 to 100
6,CC[C@H]1CCC[C@H](NC(=O)c2nccc(OC)c2OC(C)=O)C(=O)O[C@@H](C)[C@@H]1Oc1ccccc1 [Compound F81],80 to 100
7,COc1ccnc(C(=O)N[C@H]2CCC[C@H](CC(F)F)[C@@H](Oc3ccccc3)[C@H](C)OC2=O)c1OC(C)=O [Compound F82],80 to 100
8,COc1ccc(C[C@H]2CCC[C@H](NC(=O)c3nccc(OC)c3OCOC(C)=O)C(=O)O[C@@H](C)[C@@H]2Oc2ccccc2)cc1 [Compound F114],80 to 100
9,COc1ccnc(C(=O)N[C@H]2CCC[C@H](CCBr)[C@@H](Oc3ccccc3)[C@H](C)OC2=O)c1OC(C)=O [Compound F80],80 to 100

# Test system: Phakopsora pachyrhizi
# Experiment: Asian Soybean Rust (PHAKPA) disease control
# Assay type: in vivo
# Conditions: Phakopsora pachyrhizi, topical, 24 h, 1 Day Protectant, read-out: Disease Control PHAKPA 1DP
# Description: Technical grades of materials were dissolved in acetone, which were then mixed with nine volumes of water containing 0.011% Tween 20. The fungicide solutions were applied onto soybean seedlings using an automated booth sprayer to run-off. All sprayed plants were allowed to air dry prior to further handling.
# Soybean plants (variety Williams 82) were grown in soil-less Metro mix, with one plant per pot. Two weeks old seedlings were used for testing. Plants were inoculated either 3 days prior to or 1 day after fungicide treatments. Plants were incubated for 24 h in a dark dew room at 22° C. and 100% RH then transferred to a growth room at 23° C. for disease to develop. Disease severity was assessed on the sprayed leaves.
row,SMILES,pest or weed control at 25 ppm [%]
1,CCOCC(=O)OCOc1c(OC)ccnc1C(=O)N[C@H]1CCC[C@H](Cc2ccc(F)cc2)[C@@H](OCC(C)C)[C@H](C)OC1=O [Compound F168],80 to 100
2,COc1ccnc(C(=O)N[C@H]2CCC[C@H](Cc3ccccc3)[C@@H](OCC3CC3)[C@H](C)OC2=O)c1OCOC(C)=O [Compound F107],80 to 100
3,COc1ccc(C[C@H]2CCC[C@H](NC(=O)c3nccc(OC)c3OCOC(C)=O)C(=O)O[C@@H](C)[C@@H]2OCC(C)C)cc1 [Compound F118],80 to 100
4,COc1ccnc(C(=O)N[C@H]2CCC[C@H](Cc3ccccc3)[C@@H](OCC3CC3)[C@H](C)OC2=O)c1OCOC(=O)C(C)C [Compound F152],80 to 100
5,CC[C@H]1CCC[C@H](NC(=O)c2nccc(OC)c2OC(C)=O)C(=O)O[C@@H](C)[C@@H]1Oc1ccccc1 [Compound F81],80 to 100
6,COc1ccnc(C(=O)N[C@H]2CCC[C@H](CC(F)F)[C@@H](Oc3ccccc3)[C@H](C)OC2=O)c1OC(C)=O [Compound F82],80 to 100
7,COc1ccnc(C(=O)N[C@H]2CCC[C@H](CCBr)[C@@H](Oc3ccccc3)[C@H](C)OC2=O)c1OC(C)=O [Compound F80],80 to 100

# Same assay, conditions: Phakopsora pachyrhizi, topical, 72 h, 3 Day Curative, read-out: Disease Control PHAKPA 3DC
row,SMILES,pest or weed control at 25 ppm [%]
1,CCOCC(=O)OCOc1c(OC)ccnc1C(=O)N[C@H]1CCC[C@H](Cc2ccc(F)cc2)[C@@H](OCC(C)C)[C@H](C)OC1=O [Compound F168],0 to 80
2,COc1ccnc(C(=O)N[C@H]2CCC[C@H](Cc3ccccc3)[C@@H](OCC3CC3)[C@H](C)OC2=O)c1OCOC(C)=O [Compound F107],80 to 100
3,COc1ccc(C[C@H]2CCC[C@H](NC(=O)c3nccc(OC)c3OCOC(C)=O)C(=O)O[C@@H](C)[C@@H]2OCC(C)C)cc1 [Compound F118],0 to 80
4,COc1ccnc(C(=O)N[C@H]2CCC[C@H](Cc3ccccc3)[C@@H](OCC3CC3)[C@H](C)OC2=O)c1OCOC(=O)C(C)C [Compound F152],80 to 100
5,CC[C@H]1CCC[C@H](NC(=O)c2nccc(OC)c2OC(C)=O)C(=O)O[C@@H](C)[C@@H]1Oc1ccccc1 [Compound F81],80 to 100
6,COc1ccnc(C(=O)N[C@H]2CCC[C@H](CC(F)F)[C@@H](Oc3ccccc3)[C@H](C)OC2=O)c1OC(C)=O [Compound F82],80 to 100
7,COc1ccnc(C(=O)N[C@H]2CCC[C@H](CCBr)[C@@H](Oc3ccccc3)[C@H](C)OC2=O)c1OC(C)=O [Compound F80],0 to 80
